Laboratory results published in patent US20100129933A1, “METHOD FOR DETECTING THE BINDING BETWEEN MDM2 AND THE PROTEASOME” (Forschungszentrum Karlsruhe GmbH, priority 2007, published 2010).
Peptide text beside a SMILES is read from it. * marks the point of attachment. Cbz = O=C(OCc1ccccc1)*

How the values were obtained:
p53 ubiquitination = assay: Cellular p53 ubiquitylation assay in U2OS cells; type: cell-based; settings: His-tagged ubiquitin, 10 μM, 2 hours
Method: After incubation ubiquitylated proteins were purified by adsorption to Ni2+-agarose and separated by SDS-PAGE. P53 was detected by Western blotting. (TCL: Total cell lysate)
To test this option, we performed an cellular ubiquitylation assay in the presence of the compound.

HDM2 = molecular target: T1, HDM2 (Homo sapiens, UniProt Q00987); assay: Limited proteolysis of GST-HDM2 by trypsin; type: binding; settings: 10 μM compound, 40 ng trypsin, 15 min on ice
T1 construct: made in house; host or cells: bacteria (pGEX-4T-2 vector)
T1 sequence (Q00987 whole entry): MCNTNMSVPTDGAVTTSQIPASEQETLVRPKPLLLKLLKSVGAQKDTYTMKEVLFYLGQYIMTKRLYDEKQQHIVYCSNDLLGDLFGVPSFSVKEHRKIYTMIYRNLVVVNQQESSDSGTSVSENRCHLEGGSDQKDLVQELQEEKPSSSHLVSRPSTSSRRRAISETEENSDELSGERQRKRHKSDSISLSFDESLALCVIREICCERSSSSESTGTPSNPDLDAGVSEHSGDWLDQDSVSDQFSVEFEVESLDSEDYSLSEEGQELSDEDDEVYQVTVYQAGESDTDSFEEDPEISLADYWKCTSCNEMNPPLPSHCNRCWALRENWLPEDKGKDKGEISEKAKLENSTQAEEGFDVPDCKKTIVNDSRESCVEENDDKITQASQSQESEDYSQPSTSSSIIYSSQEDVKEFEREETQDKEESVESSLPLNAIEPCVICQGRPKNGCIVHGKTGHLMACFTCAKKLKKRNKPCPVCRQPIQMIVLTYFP
Method: GST-HDM2, GST-HDMX were incubated with 10 μM of JNJ-#1 or with DMSO for control. Then 40 ng trypsin were added and the mixture was incubated for 15 min on ice. […] HDM2 was detected by incubating the membrane with the HDM2 antibodies 4B2, SMP14 and C18. Western blots were developed by ECL.
40 ng of trypsin were added and the mixture was incubated for 15 min on ice. Samples were separated by 10% SDS-PAGE gel and blotted onto Immobilon P membrane. The membrane was incubated with the anti-HDM2 antibody 4B2. The Western blot was developed by ECL.
Then 40 ng trypsin was added and the mixture was incubated for 15 min on ice. Proteolysis was stopped by addition of 2× sample buffer. Samples were loaded onto an 12 or 15% SDS-PAGE gel and HDM2 or HDMX were detected by Western blotting.

SMILES | ubiquitylation of p53 (p53 ubiquitination) | proteolysis of GST-HDM2 by trypsin (HDM2)
COc1ccc(C2=N[C@@H](c3ccc(Cl)cc3)[C@@H](c3ccc(Cl)cc3)N2C(=O)N2CCNC(=O)C2)c(OC(C)C)c1 [Nutlin-3] | strongly reduced | 
CC(C)C[C@@H](C=O)NC(=O)[C@H](CC(C)C)NC(=O)[C@H](CC(C)C)NC(=O)OCc1ccccc1 [MG132] (Cbz-Leu-Leu-Leu-aldehyde) |  | had no affect
